Test results published in patent US9089572B2, “Inhibitors of p97” (California Institute of Technology, priority 2008, dated 2015).
Where “and” joins values, the source holds several entries; their conditions need not be identical. Equal entries are not always repeated.

Experiments:
Yeast Cdc48 = Yeast Cdc48 (Saccharomyces cerevisiae, UniProt P25694); test: In vitro ATP hydrolysis, yeast Cdc48; format: biochemical
Procedure: (§1) Compounds were tested for their ability to inhibit the ATPase activity of purified wild type murine p97 and T532C-Cdc48, a mutant of yeast Cdc48 in which the residue analogous to cysteine 522, threonine 532, was converted to cysteine.
(§2) To determine whether cysteine 522 is necessary for inhibition of p97 by compound 2, a mutant of p97 was constructed in which cysteine 522 was converted to either alanine (C522A-mp97) or threonine (C522T-mp97). The IC50 values of compound 2 were measured the against various enzymes during a 20-minute preincubation (see Table 2). Mutation of cysteine 522 in p97 to either alanine or threonine decreased sensitivity to compound 2 by greater than 100-fold. On the other hand, yeast Cdc48, which normally is quite resistant to compound 2, became nearly 30-fold more sensitive to the compound upon introduction of a cysteine in place of threonine 532.

RPMI8226 = test: MTT cell growth assay, RPMI8226; format: cell-based; details: Homo sapiens, RPMI-8226, 48 or 72 h, read-out: Cell line inhibition of growth GI50 RPMI8226
Procedure: (§3) To probe further the effect of compound 2 and related compounds 1, 3, 5, 6 and 7, various concentrations of these compounds were added to 13 different cell lines and incubated for 48 or 72 h. An MTT assay was then performed to evaluate cell growth and survival.

wild type murine p97 = wild type murine p97 (Mus musculus, UniProt Q01853); test: In vitro ATP hydrolysis (malachite green ATPase assay), wild type murine p97; format: biochemical
Procedure: as §1

13 different cell lines = test: MTT cell growth assay, summary across 13 different cell lines; format: cell-based; details: read-out: 50% inhibition of growth (GI50) across the 13 different cell lines; range across 13 cell lines
Procedure: as §3
Data for the assay with MCF-7 cells and HeLa cells is shown in FIG. 21 and FIG. 22, respectively. […] Thus, compound 2 blocks p97-dependent processes in cells and also blocks the proliferation of cancer cell lines, illustrating its potential utility as an anti-proliferative drug to treat cancer.

HTC116 WT = test: MTT cell growth assay, HTC116 WT; format: cell-based; details: 48 or 72 h, read-out: Cell line inhibition of growth GI50 HTC116 WT
Procedure: as §3

HCT116 p53−/− = test: MTT cell growth assay, HCT116 p53−/−; format: cell-based; details: Homo sapiens, HCT-116, 48 or 72 h, read-out: Cell line inhibition of growth GI50 HCT116 p53−/−
Procedure: as §3

MRC5-SV40 = test: CellTiter-Glo growth inhibition, MRC5 cells engineered to express SV40; format: cell-based
C522T-mp97 = target: T1, C522T-mp97 (Mus musculus, UniProt Q01853, C522T); test: In vitro ATP hydrolysis, C522T-mp97 mutant; format: biochemical, murine; details: 20-minute preincubation
T1 construct: made in house
Procedure: as §1, §2

LNCaP = test: MTT cell growth assay, LNCaP; format: cell-based; details: Homo sapiens, 48 or 72 h, read-out: Cell line inhibition of growth GI50 LNCaP
Procedure: as §3

DU145 = test: MTT cell growth assay, DU145; format: cell-based; details: Homo sapiens, DU-145, 48 or 72 h, read-out: Cell line inhibition of growth GI50 DU145
Procedure: as §3

cysteine 522 of p97 = cysteine 522 of p97 (Mus musculus, UniProt Q01853); test: Tandem mass spectrometry of tryptic peptides of inhibited p97; format: binding; details: trypsin digest, HPLC
Procedure: To determine if inhibition by compound 2 requires a reactive thiol, the experiment was repeated with p97 except that various nucelophiles were included during the preincubation. […] To evaluate whether compound 2 modifies cysteine 522, inhibited p97 was digested with trypsin and peptides were fractionated by HPLC and analyzed by tandem mass spectrometry.

Ub-G76V-GFP/HeLa cells = test: Degradation of pre-accumulated Ub-G76V-GFP (cycloheximide chase after MG132 washout); format: cell-based; details: for % K: relative to 0 μM
Procedure: To evaluate this possibility, an assay was developed to determine the rate of degradation of pre-accumulated Ub-G76V-GFP molecules. […] Cells were then washed with PBS three times remove the MG132. Cells were then refreshed by adding DMEM containing cycloheximide (50 μg/mL; to block production of more Ub-G76V-GFP) and test compounds (0˜10 μM) were added into cells. Eight 96-well plates were prepared and one of the plates was imaged at 25, 50, 70, 100, 110, 125, 145, or 170 min after washing with PBS three times. After washing out MG132, degradation of pre-accumulated Ub-G76V-GFP appears to follow pseudo-first order reaction. Rate constant (K; 1/min) can be determined from the slope of plotting Ln (Fold Accumulation) versus Time (min) (see FIG. 17 and FIG. 18).
Ub-G76V-GFP/HeLa cells were treated with MG132 (2 μM) for 1 h and washed with PBS three times. DMEM containing cycloheximide (50 μg/mL) and compound 8 (0-10 μM) was added into cells. Eight 96-well plates were prepared and one of the plates was imaged at 25, 50, 70, 100, 110, 125, 145, or 170 min after washing with PBS three times.

Human 19S ATPase = test: In vitro ATP hydrolysis, 19S ATPase of the 26S proteasome; format: biochemical; details: 20-minute preincubation
Procedure: as §2
(§4) To further address the specificity of inhibition by compound 2, its activity against two other AAA ATPases, NSF and the 26S proteasome, was assayed. Although NSF is known to be sensitive to thiol-reactive agents, it was more than 100-fold less sensitive to compound 2 than p97 (Table 2). […] The results with NSF and the 26S proteasome are noteworthy because both the active D1 domain of NSF and the Rpt3 subunit of the 26S proteasome have a cysteine in the position analogous to cysteine 522 of p97 (FIG. 3).

Hamster NSF = Hamster NSF (Cricetulus griseus, UniProt P18708); test: In vitro ATP hydrolysis, NSF; format: biochemical
Procedure: as §2, §4

RL = test: MTT cell growth assay, RL; format: cell-based; details: Homo sapiens, 48 or 72 h, read-out: Cell line inhibition of growth GI50 RL
Procedure: as §3

CCRF-CEM = test: MTT cell growth assay, CCRF-CEM; format: cell-based; details: Homo sapiens, 48 or 72 h, read-out: Cell line inhibition of growth GI50 CCRF-CEM
Procedure: as §3

Sequence of wild type murine p97 (Q01853 whole entry): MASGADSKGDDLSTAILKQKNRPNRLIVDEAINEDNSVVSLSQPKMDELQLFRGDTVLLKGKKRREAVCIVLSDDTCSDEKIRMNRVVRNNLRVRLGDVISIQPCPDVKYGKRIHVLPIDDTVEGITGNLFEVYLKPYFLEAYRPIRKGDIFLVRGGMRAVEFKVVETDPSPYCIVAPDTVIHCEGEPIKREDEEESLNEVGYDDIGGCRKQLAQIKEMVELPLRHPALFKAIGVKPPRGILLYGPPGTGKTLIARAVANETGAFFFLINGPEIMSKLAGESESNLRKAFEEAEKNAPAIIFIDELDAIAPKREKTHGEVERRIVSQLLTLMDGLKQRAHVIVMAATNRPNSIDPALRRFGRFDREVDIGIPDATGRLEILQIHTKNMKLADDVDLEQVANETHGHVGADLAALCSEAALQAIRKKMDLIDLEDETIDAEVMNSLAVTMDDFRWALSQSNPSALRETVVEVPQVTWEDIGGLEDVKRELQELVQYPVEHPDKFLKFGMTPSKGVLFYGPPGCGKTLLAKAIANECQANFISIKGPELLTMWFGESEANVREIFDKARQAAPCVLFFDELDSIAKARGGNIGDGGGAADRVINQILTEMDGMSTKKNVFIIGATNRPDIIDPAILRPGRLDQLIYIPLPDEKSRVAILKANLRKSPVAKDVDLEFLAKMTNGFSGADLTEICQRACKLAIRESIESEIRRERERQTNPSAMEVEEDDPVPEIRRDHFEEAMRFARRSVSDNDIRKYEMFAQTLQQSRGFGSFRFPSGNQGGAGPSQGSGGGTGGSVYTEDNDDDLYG
Sequence of Hamster NSF (P18708 whole entry): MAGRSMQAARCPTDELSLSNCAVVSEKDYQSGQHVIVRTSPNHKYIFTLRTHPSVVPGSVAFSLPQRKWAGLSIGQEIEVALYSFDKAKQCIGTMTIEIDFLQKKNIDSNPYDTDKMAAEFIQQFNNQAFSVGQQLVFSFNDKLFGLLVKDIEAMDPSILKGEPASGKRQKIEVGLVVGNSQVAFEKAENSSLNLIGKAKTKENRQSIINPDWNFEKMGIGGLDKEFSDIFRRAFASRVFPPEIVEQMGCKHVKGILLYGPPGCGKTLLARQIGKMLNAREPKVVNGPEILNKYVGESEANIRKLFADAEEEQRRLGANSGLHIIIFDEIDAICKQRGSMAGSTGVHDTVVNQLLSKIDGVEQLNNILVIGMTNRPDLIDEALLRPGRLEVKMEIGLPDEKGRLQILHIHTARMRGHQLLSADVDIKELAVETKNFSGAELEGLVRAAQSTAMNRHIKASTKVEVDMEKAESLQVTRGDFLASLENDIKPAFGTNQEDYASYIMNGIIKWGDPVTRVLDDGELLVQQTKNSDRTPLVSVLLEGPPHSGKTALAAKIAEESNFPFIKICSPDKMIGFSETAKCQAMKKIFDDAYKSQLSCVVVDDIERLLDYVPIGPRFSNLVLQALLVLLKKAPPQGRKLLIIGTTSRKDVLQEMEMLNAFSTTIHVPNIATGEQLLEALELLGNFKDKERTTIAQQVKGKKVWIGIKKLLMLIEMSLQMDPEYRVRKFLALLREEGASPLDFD
Sequence of Yeast Cdc48 (P25694 whole entry): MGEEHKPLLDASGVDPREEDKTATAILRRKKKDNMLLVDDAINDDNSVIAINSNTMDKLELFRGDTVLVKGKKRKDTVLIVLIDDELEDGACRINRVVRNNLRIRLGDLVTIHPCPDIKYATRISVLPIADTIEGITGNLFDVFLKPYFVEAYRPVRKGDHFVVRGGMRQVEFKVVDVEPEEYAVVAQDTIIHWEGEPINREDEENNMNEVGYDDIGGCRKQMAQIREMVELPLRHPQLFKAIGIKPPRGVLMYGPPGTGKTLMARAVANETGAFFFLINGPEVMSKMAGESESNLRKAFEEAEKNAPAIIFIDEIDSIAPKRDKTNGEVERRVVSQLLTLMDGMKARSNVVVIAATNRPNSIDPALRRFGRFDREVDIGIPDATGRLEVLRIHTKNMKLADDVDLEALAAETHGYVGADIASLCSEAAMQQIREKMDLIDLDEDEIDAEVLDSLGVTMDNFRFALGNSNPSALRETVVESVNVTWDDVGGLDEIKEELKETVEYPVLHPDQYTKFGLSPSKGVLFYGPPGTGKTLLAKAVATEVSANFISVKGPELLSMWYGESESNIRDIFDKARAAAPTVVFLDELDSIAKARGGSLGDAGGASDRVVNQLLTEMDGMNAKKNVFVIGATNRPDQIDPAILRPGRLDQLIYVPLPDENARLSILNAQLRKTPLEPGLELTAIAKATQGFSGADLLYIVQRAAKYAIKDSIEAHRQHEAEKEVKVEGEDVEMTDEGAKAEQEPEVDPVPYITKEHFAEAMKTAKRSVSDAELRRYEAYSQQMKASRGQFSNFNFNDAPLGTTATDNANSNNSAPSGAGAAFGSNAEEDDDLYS
Sequence of cysteine 522 of p97 (Q01853 whole entry): as the sequence (Q01853 whole entry) above
Sequence of Human 19S ATPase (P17980 whole entry): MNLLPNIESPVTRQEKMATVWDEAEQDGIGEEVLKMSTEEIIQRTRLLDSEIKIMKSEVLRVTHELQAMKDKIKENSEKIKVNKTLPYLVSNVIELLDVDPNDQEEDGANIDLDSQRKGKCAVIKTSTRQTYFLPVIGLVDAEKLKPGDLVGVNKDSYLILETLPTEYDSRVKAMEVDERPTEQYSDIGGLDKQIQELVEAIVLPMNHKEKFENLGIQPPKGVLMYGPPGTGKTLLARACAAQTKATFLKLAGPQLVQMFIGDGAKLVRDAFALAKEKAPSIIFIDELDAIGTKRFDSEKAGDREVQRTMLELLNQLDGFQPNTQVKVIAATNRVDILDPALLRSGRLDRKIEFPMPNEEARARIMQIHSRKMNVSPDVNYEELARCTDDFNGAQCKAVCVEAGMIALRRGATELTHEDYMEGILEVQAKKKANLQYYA
Sequence of Human 19S ATPase (P62333 whole entry, further chain): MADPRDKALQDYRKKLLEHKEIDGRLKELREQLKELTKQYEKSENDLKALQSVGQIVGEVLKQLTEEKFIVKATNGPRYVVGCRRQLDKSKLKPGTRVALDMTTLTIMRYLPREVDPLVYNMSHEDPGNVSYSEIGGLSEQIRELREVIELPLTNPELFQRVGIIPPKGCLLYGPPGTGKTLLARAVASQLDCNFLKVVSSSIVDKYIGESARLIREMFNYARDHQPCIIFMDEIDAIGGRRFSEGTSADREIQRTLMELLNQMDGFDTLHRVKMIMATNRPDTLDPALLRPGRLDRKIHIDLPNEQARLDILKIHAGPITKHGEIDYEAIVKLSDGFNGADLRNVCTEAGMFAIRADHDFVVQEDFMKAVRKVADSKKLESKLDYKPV
Sequence of Human 19S ATPase (P62195 2-406, further chain): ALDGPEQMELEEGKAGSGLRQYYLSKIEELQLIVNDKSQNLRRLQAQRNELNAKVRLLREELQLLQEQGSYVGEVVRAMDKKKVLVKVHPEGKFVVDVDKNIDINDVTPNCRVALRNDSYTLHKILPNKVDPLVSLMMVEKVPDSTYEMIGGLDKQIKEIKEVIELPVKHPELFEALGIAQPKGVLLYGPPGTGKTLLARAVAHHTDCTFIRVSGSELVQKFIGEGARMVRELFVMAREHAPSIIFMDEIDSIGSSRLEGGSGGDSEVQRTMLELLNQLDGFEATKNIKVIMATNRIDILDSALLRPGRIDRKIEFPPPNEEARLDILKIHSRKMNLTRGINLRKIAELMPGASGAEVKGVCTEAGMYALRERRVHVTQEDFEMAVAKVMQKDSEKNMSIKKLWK
Sequence of Human 19S ATPase (P35998 2-433, further chain): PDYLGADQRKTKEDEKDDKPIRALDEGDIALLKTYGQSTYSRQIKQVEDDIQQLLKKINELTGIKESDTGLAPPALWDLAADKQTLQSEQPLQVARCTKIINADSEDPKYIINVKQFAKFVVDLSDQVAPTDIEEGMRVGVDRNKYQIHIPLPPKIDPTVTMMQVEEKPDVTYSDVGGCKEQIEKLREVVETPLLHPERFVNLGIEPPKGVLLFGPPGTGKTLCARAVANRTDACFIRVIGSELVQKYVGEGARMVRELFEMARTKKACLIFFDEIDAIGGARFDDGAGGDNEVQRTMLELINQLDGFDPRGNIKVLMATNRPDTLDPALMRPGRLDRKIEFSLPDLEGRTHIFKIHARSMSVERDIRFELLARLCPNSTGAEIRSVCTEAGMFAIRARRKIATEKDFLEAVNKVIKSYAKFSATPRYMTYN
Sequence of Human 19S ATPase (P62191 2-440, further chain): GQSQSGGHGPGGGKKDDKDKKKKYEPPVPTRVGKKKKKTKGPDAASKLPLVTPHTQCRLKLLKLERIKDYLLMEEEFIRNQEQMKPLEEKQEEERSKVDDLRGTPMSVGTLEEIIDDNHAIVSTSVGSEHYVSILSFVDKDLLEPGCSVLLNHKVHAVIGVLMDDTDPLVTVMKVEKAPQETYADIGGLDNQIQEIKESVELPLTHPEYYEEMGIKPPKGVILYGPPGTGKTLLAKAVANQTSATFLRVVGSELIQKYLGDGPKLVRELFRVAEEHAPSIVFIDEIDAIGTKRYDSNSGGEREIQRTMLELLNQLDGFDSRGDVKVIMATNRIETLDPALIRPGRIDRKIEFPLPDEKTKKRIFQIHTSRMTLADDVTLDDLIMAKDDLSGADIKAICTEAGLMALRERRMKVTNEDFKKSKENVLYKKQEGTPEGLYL
Sequence of Human 19S ATPase (P43686 whole entry, further chain): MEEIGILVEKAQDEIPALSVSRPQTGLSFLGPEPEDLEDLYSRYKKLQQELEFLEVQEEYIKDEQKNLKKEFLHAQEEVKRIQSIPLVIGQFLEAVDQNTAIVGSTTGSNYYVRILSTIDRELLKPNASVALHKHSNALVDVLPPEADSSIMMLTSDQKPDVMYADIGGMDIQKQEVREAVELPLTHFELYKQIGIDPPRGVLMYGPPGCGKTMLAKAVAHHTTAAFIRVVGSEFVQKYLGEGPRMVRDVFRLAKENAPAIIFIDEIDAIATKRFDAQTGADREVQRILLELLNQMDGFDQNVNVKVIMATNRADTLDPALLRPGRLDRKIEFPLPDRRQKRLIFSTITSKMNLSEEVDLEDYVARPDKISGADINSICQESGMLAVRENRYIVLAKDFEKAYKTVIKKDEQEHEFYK
T1 sequence (Q01853 whole entry C522T): as the sequence (Q01853 whole entry) above, with C522T counted along it

C=CC(=O)Nc1ncnc2c1c(-c1ccccc1)nn2C(C)(C)C [Compound 2]
IC50 (Yeast Cdc48): 376 ± 95 µM | GI50 (RPMI8226): 0.4 ± 0.1 µM | IC50 (wild type murine p97; 200 nM p97, 20 min preincubation at 23° C., malachite green, read-out: In vitro ATP Hydrolysis Activity IC50 WT-mP97): 0.6 µM and 0.62 µM | inhibitory effect on p97 with nucleophiles in the preincubation (wild type murine p97; cysteine or dithiothreitol in the preincubation buffer): counteracted | GI50 (13 different cell lines): 0.4 to 5.1 µM | GI50 (HTC116 WT): 2.4 ± 1.2 µM | GI50 (HCT116 p53−/−): 2.5 ± 1.5 µM | GI50 (MRC5-SV40; Homo sapiens, MRC5, 48 h at 37° C., CellTiter-Glo, read-out: Cell line inhibition of growth GI50 MRC5-SV40): 7.3 ± 5.5 µM | greater sensitivity of SV40-transformed cells than WT cell line (MRC5-SV40; MRC5-SV40 vs MRC5-WT GI50): 2 fold | IC50 (C522T-mp97): 82 ± 45 µM | GI50 (LNCaP): 2.7 ± 1.2 µM | GI50 (DU145): 3.6 ± 1.5 µM | covalent modification of cysteine 522 (cysteine 522 of p97): formed a covalent adduct on cysteine 522 | K, rate constant of Ub-G76V-GFP degradation (Ub-G76V-GFP/HeLa cells; 0.01 μM): 0.0318 min⁻¹ | % K (Ub-G76V-GFP/HeLa cells; 0.01 μM): 83% | K, rate constant of Ub-G76V-GFP degradation (Ub-G76V-GFP/HeLa cells; 0.04 μM): 0.0306 min⁻¹ | % K (Ub-G76V-GFP/HeLa cells; 0.04 μM): 80% | K, rate constant of Ub-G76V-GFP degradation (Ub-G76V-GFP/HeLa cells; 0.16 μM): 0.0292 min⁻¹ | % K (Ub-G76V-GFP/HeLa cells; 0.16 μM): 76% | K, rate constant of Ub-G76V-GFP degradation (Ub-G76V-GFP/HeLa cells; 0.63 μM): 0.0237 min⁻¹ | % K (Ub-G76V-GFP/HeLa cells; 0.63 μM): 62% | K, rate constant of Ub-G76V-GFP degradation (Ub-G76V-GFP/HeLa cells; 2.5 μM): 0.0189 min⁻¹ | % K (Ub-G76V-GFP/HeLa cells; 2.5 μM): 49% | K, rate constant of Ub-G76V-GFP degradation (Ub-G76V-GFP/HeLa cells; 10 μM): 0.0015 min⁻¹ | % K (Ub-G76V-GFP/HeLa cells; 10 μM): 4% | IC50 (Ub-G76V-GFP/HeLa cells; Homo sapiens, HeLa, 1 h, read-out: IC50 on the decay of Ub-G76V-GFP): 1.25 ± 0.47 µM | IC50 (Human 19S ATPase): 75 µM | IC50 (Hamster NSF; 20-minute preincubation): 105 ± 31 µM | NSF less sensitive than p97 (Hamster NSF; NSF vs p97): more than 100 fold | GI50 (RL): 2.1 ± 1.1 µM | GI50 (CCRF-CEM): 1.6 ± 0.8 µM
